Broadly, the AUC(0-inf) is total exposure, with the tail of the curve extrapolated. Read a high AUC(0-inf) as high exposure. For orientation: AUC(0-t) means the area under the concentration-time curve up to a stated or last time point. Higher therefore signals high exposure. The Cmax is the maximum level reached in the sampled fluid or tissue. One may read the Tmax as the time from dosing to the highest level. A word on the bioavailability: it is the share of a dose that reaches the circulation, judged against a reference dose that is usually intravenous. Usually half-life stands for the time needed for the level to fall by half in the phase considered.

Data set [1] in a line: In vivo pharmacokinetics in mice (IV or IP, parallel sampling). The settings on record: for AUC% Ext: male CD-1 mice.
For data set [2] the following is noted: mouse, in vivo, ip, 5 mg/kg.
For data set [3] the following is noted: pH 7.4.
Data set [4] can be described thus: in vivo. The settings on record: male, CD-1, mouse.
[5] abbreviates: male, CD-1, mouse, plasma, ip, 5 mg/kg.
The mark [6] stands for this setting: male, CD-1, mouse, plasma, iv, 1 mg/kg.

Read-outs that look alike come from different tables or passages of the source. Starred links: 1 amine or outer side, 2 acyl side, 3 side chain; linkers in the order of their positions; H or OH if unused. Positions of bridges follow the written chain, without caps; N, C: chain ends. Non-standard residues stand in square brackets, D forms with d. Residues, ends and D or L forms follow the SMILES beside them. Triazole bridges read from a SMILES are 1,4-linked. Chains are numbered I, II in the order given. *: point of attachment. X1 = O=C(CCCC[C@@H]1SC[C@@H]2NC(=O)N[C@@H]21)NCCCOCCOCCOCCCN*; Lys(N3) = [N-]=[N+]=NCCCC[C@H](N)C(=O)O; Suc = O=C(CCC(=O)[*:2])[*:1]; dPra = C#CC[C@@H](N)C(=O)O

As to `CC[C@@H](C)[C@@H](NC(=O)[C@@H](CCC(=O)O)NC(=O)[C@@H](CCC(=O)O)NC(=O)[C@H](N)Cc1cn(CCCC[C@H](NC(=O)[C@@H](Cc2c[nH]c3ccccc23)NC(=O)[C@@H](CCC(=O)O)NC(=O)[C@@H](CCCNC(=N)N)NC(=O)[C@@H](Cc2ccccc2)NC(=O)[C@@H](CC(C)C)NC(=O)[C@H](N)Cc2cn(CCCC[C@H](NC(=O)[C@H](CC(C)C)NC(=O)[C@H](CCCNC(=N)N)NC(=O)[C@H](CCC(=O)O)NC(=O)[C@H](Cc3ccccc3)NC(=O)[C@@H]3CSSC[C@H](NC(=O)[C@H](CC(N)=O)NC(=O)[C@@H]4CCCN4C(=O)[C@H](CCC(=O)O)NC(=O)[C@@H](NC(=O)CCC(=O)NCCCOCCOCCOCCCNC(=O)CCCC[C@@H]4SC[C@@H]5NC(=O)N[C@@H]54)C(C)C)C(=O)N[C@@H](CC(=O)O)C(=O)N[C@@H]([C@@H](C)CC)C(=O)N[C@@H](Cc4c[nH]cn4)C(=O)N[C@@H](C(C)C)C(=O)N[C@@H](CCSC)C(=O)N[C@@H](Cc4c[nH]c5ccccc45)C(=O)N[C@@H](CCC(=O)O)C(=O)N[C@@H](Cc4c[nH]c5ccccc45)C(=O)N[C@@H](CCC(=O)O)C(=O)N3)C(=O)O)nn2)C(=O)O)nn1)C(=O)N[C@H](CCCNC(=N)N)C(=O)N[C@H](CC(=O)O)C(N)=O` [Tri‐LV] (I: {X1-Suc}-VEPNCDIHVMWEWECFERL[Lys(N3)]-OH / II: H-[dPra][dL][dF][dR][dE][dW][Lys(N3)]-OH / III: H-[dPra][dE][dE][dI][dR][dD]-NH2; disulfide I:5-I:15; triazole I:20-II:1, II:7-III:1), in data set [1] (IP, 5 mg/kg single dose, plasma), the “AUC% Ext” value was determined as 2.04%. Further, in data set [1] (IV, 1 mg/kg single dose, plasma), the “AUC% Ext” value was 6.49%. In data set [1] (setting [5]), the AUC(0-inf) is 32200 ng·h/mL, the AUC(0-t) was determined as 31500 ng·h/mL, the Cmax turned out to be 19800 ng/mL and the Tmax came to 30 min. Also, in data set [1] (setting [6]), the AUC(0-inf) was 6490 ng·h/mL, the area under the curve AUC(0-t) is 6070 ng·h/mL, the Vd was 0.0967 L/kg and the clearance is 2.57 mL/min/kg. This molecule showed a bioavailability in data set [1] (mouse, in vivo, ip, 5 mg/kg) of 99%.
`CC[C@H](C)[C@@H]1NC(=O)[C@H](CC(=O)O)NC(=O)[C@@H](NC(=O)[C@H](CC(N)=O)NC(=O)[C@@H]2CCCN2C(=O)[C@H](CCC(=O)O)NC(=O)[C@@H](NC(=O)CCC(=O)NCCCOCCOCCOCCCNC(=O)CCCC[C@@H]2SC[C@@H]3NC(=O)N[C@@H]32)C(C)C)CSSC[C@@H](C(=O)N[C@@H](Cc2ccccc2)C(=O)N[C@@H](CCC(=O)O)C(=O)N[C@@H](CCCNC(=N)N)C(=O)N[C@@H](CC(C)C)C(=O)N[C@@H](CCCCn2cc(C[C@@H](N)C(=O)N[C@H](CC(C)C)C(=O)N[C@H](Cc3ccccc3)C(=O)N[C@H](CCCNC(=N)N)C(=O)N[C@H](CCC(=O)O)C(=O)N[C@H](Cc3c[nH]c4ccccc34)C(N)=O)nn2)C(=O)O)NC(=O)[C@H](CCC(=O)O)NC(=O)[C@H](Cc2c[nH]c3ccccc23)NC(=O)[C@H](CCC(=O)O)NC(=O)[C@H](Cc2c[nH]c3ccccc23)NC(=O)[C@H](CCSC)NC(=O)[C@H](C(C)C)NC(=O)[C@H](Cc2c[nH]cn2)NC1=O` [Bi‐LV] (I: {X1-Suc}-VEPNCDIHVMWEWECFERL[Lys(N3)]-OH / II: H-[dPra][dL][dF][dR][dE][dW]-NH2; disulfide I:5-I:15; triazole I:20-II:1) registered a bioavailability in data set [2] of 41%. The “resistance to metabolic degradation by mouse liver microsomes (in words)” value in data set [3] is “high resistance to metabolic degradation”. Moreover, in data set [4] (ip, 5 mg/kg), the AUC(0-inf) turned out to be 2420 ng·h/mL, the AUC(0-t) amounted to 2170 ng·h/mL, the Cmax is 3210 ng/mL and the Tmax came out at 10.2 min. The molecule also had a half-life in data set [4] (ip, 5 mg/kg) of 154 min. In data set [4] (iv, 1 mg/kg), this molecule returned an AUC(0-inf) of 1110 ng·h/mL, an area under the curve AUC(0-t) of 1050 ng·h/mL, a Vd of 0.16 L/kg and a clearance of 15 mL/min/kg. Further, the half-life in data set [4] (iv, 1 mg/kg) is 7 min.
